In patent publication US20130315849A1, “USE OF 13-HYDROXY-9,11-OCTADECADIENOIC ACID FOR TANNING HUMAN SKIN” (EVONIK GOLDSCHMIDT GMBH, priority 2010, published 2013):

Assays:
IL-6 = test: UV-stimulated induction of IL-6 gene expression in keratinocytes (qRT-PCR); type: cell-based, human; settings: NHEKs, UV-B exposed, treated with 13-HODE as in Example 1; UV alone induction factor 10.1
Text: (§1) In the present example, the effect of 13-HODE on the expression of various proinflammatory marker genes in UV-B-stimulated keratinocytes (normal human epidermal keratinocytes, NHEKs) was investigated. The experimental procedure was largely identical to the procedure described in Example 1. Differences consisted merely in the selection of the gene-specific primers for carrying out the quantitative Real-Time PCR.

IL-8 = test: UV-stimulated induction of IL-8 gene expression in keratinocytes (qRT-PCR); type: cell-based, human; settings: NHEKs, UV-B exposed, treated with 13-HODE as in Example 1; UV alone induction factor 11.2
Text: as §1

POMC [1] = test: Basal (not UV-induced) POMC gene expression in keratinocytes (qRT-PCR); type: cell-based, human; settings: NHEKs, 10 μg/ml 13-HODE, no UV, 24 h + 24 h; standardized to 18S rRNA
Method: In the present example, the effect of 13-HODE on the POMC gene expression was investigated in keratinocytes which, in contrast to Example 1, have not been stimulated by prior UV exposure. For this purpose, firstly primary human epidermal keratinocytes were prepared from neonatal foreskin. The procedure is described in the following publications: Grether-Beck et al., J Invest Dermatol 2005, 125: 545-553; Grether-Beck et al., Exp Dermatol 2008, 17: 771-779. […]
The isolation of the whole-RNA and also the subsequent analysis of the gene expression by means of quantitative Real Time PCR (qRT-PCR) was carried out as described previously (Grether-Beck et al., J Invest Dermatol 2005, 125: 545-553; Grether-Beck et al., Exp Dermatol 2008, 17: 771-779). […] The RNA concentration was determined by means of photometric measurement at 260/280 nm (Biophotometer, Eppendorf, Germany). […] Besides the POMC expression, the expression of the 18s rRNA gene was also quantitatively determined as a reference. […]
The PCR reactions were carried out on an Opticon 1 (MJ Research, Waltham, Mass., USA). For all PCRs, double determinations of the biological triplicates were carried out, and for the evaluation averages of all measurements were calculated. […]

COX2 = test: UV-stimulated induction of COX2 gene expression in keratinocytes (qRT-PCR); type: cell-based, human; settings: NHEKs, UV-B exposed, treated with 13-HODE as in Example 1; UV alone induction factor 2.5
Text: as §1

POMC [2] = test: UV-B-induced POMC gene expression in keratinocytes (qRT-PCR); type: cell-based, human; settings: NHEKs, 3 μg/ml 13-HODE, 160 J/m^2 UV-B, harvest 6 h after exposure; standardized to 18S rRNA; UV alone factor 1.8; p<0.01
Method: In the present example, the effect of 13-HODE on the POMC gene expression in UV-B-stimulated keratinocytes (normal human epidermal keratinocytes, NHEKs) was investigated. For this purpose, firstly primary human epidermal keratinocytes were prepared from neonatal foreskin. The procedure is described in the following publications: Grether-Beck et al., J Invest Dermatol 2005, 125: 545-553; and Grether-Beck et al., Exp Dermatol 2008, 17: 771-779. […]
After cultivation for 24 hours, the cells were exposed to a dose of 160 J/m^2 of UV-B radiation. […] The emitted power was determined using an IL 1700 Research Radiometer and SEE 240 UV-B photodetector (International Light Inc., Newbury Port, Mass.) and was 2.4 W/m^2 at a distance of 22 cm. […]
Isolation of whole-RNA and subsequent analysis of the gene expression by means of quantitative Real Time PCR (qRT-PCR) was carried out as described previously (Grether-Beck et al., J Invest Dermatol 2005, 125: 545-553; Grether-Beck et al., Exp Dermatol 2008, 17: 771-779). […] The RNA concentration was determined by means of photometric measurement at 260/280 nm (Biophotometer, Eppendorf, Germany). […] Besides the POMC expression, the expression of the 18s rRNA gene was also determined quantitatively as a reference. […]

TNF-α = test: UV-stimulated induction of TNF-α gene expression in keratinocytes (qRT-PCR); type: cell-based, human; settings: NHEKs, UV-B exposed, treated with 13-HODE as in Example 1; UV alone induction factor 7.4
Text: as §1

human skin = test: Human in vivo study, maintenance of the skin tan (colorimetric skin colour); settings: 39 people, forearm, twice daily for 56 days, formulations with 0.1, 0.4, 1.0% 13-HODE vs formulation without
Method: In order to test to what extent 13-HODE has an influence on maintaining the skin tan, the maintenance of the summer tan under the influence of 13-HODE in test formulations was investigated in a clinical study. The study was carried out over a period of 8 weeks from mid-September to mid-November in Germany. The subject of the investigation was the skin colour by means of colorimetric measurements using a Skin-Colorimeter® CL 400 from Courage+Khazaka electronic GmbH, Cologne, Germany. The measurements were made in each case on the inside of the left and right forearm on a defined area measuring 3 cm×3 cm at a distance of 11-14 cm from the wrist. The average value, which resulted from the individual values of six to nine repeat measurements, was registered. 39 people aged 21-55 years participated, of which 28 were female and 11 male. In each case, the starting value of the skin colour TO was determined prior to the treatment and the value T8 was determined after treatment for 56 days with test formulations. The application frequency was twice daily, morning and evening. The test persons were given one formulation for the left arm and one for the right arm (formulation A, B, C, D; as per the table below).

CCCCCC(O)C=CC=CCCCCCCCC(=O)O (centres unmarked) [13-HODE, 13-hydroxy-9,11-octadecadienoic acid]
expression level of IL-6 in UV-exposed cells (IL-6): considerably reduced expression level | expression level of IL-8 in UV-exposed cells (IL-8): considerably reduced expression level | basal (not UV-stimulated) POMC expression compared to the control treated with the vehicle (DMSO) (POMC [1]): 1.2 fold | expression level of COX2 in UV-exposed cells (COX2): considerably reduced expression level | POMC expression increased by a factor compared to the untreated control (POMC [2]): 4.9 | expression level of TNF-α in UV-exposed cells (TNF-α): considerably reduced expression level | decrease in the blue-yellow parameter b* of the skin colour (human skin): reduced to differing degrees | increase in the parameter ITA° of the skin colour (human skin): reduced to differing degrees
